Holding throughout (assay type): cell-based
The target in experiment [1] is T1, NK2 (Homo sapiens, UniProt P21452).
T1 sequence (P21452 1-398): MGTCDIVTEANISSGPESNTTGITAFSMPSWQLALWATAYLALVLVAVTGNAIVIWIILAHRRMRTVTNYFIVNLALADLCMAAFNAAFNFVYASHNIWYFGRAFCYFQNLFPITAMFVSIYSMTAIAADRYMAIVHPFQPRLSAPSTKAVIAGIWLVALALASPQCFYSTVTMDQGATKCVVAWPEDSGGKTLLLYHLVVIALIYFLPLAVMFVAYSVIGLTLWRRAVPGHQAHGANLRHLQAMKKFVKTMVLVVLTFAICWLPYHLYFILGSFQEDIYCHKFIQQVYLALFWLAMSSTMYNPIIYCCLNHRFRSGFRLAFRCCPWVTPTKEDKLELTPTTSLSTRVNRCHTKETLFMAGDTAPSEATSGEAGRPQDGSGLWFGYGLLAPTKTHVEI
As to the kind of experiment: Signal transduction (ST), intracellular Ca++ (FLIPR), NK2. The note with it: read-out: pIC50 NK2 (converted).

The target of experiment [2] is NK1 (Homo sapiens, UniProt P25103). The experiment can be described thus: Signal transduction (ST), intracellular Ca++ (FLIPR), NK1 antagonistic activity. The note with it: read-out: pIC50 NK1 (converted). The method, boiled down: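 Antagonist IC50 was fitted by non-linear regression of peak intracellular Ca++ signals measured on FLIPR after agonist challenge. Beforehand, Fluo3-loaded confluent cells received antagonists over a concentration range for 20 min at room temperature in Ca++ Krebs buffer, pH 7.4.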
Chain of NK1 (P25103 whole entry): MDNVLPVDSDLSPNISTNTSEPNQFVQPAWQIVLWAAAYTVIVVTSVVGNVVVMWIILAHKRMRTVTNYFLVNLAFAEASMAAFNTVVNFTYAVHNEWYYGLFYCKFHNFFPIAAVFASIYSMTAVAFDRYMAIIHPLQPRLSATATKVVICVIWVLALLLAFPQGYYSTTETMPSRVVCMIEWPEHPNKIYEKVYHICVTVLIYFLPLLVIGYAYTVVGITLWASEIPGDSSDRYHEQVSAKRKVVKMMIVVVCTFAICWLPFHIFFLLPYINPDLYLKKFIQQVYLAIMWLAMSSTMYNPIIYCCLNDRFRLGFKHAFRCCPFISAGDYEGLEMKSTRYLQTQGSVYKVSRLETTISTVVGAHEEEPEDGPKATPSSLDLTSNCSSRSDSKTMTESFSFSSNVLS

Experiment [3] deals with T2, NK3 (Homo sapiens, UniProt P29371).
T2 sequence (P29371 1-465): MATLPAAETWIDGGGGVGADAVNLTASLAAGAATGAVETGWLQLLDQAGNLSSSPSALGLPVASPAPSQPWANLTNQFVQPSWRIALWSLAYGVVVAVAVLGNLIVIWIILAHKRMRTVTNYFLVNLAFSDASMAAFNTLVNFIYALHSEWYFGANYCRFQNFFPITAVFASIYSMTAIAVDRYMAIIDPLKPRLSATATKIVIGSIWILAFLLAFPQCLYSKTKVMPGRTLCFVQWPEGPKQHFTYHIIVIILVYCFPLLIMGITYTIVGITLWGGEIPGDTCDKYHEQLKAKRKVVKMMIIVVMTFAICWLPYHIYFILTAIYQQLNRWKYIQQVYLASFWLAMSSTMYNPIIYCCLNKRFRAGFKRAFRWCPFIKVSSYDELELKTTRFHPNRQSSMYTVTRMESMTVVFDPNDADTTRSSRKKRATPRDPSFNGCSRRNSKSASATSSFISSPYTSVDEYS
The experiment can be described thus: Signal transduction (ST), intracellular Ca++ (FLIPR), NK3. As to conditions: read-out: pIC50 NK3 (converted).

Structures are written as SMILES.

Take `O=C(C1CCOC1)N1CCC(N2CCN(C3CCN(C(=O)c4cc(C(F)(F)F)cc(C(F)(F)F)c4)C(Cc4ccc(F)c(F)c4)C3)CC2)C1` (single isomer, unassigned) [Compound 270]: the IC50 in experiment [1] is 2000 nM; in experiment [2], 3.16 nM; in experiment [3], 1260 nM.
In the same order, the values of `CC1(C)OCC(CNC(=NC#N)N2CCC(N3CCN(C4CCN(C(=O)c5cc(C(F)(F)F)cc(C(F)(F)F)c5)C(Cc5ccccc5)C4)CC3)C2)O1` (stereo not drawn) [Compound 370] are 6310 nM, 20 nM and 7940 nM.
In the same order, the values of `CC(C)(C)C(=O)N1CCC(N2CCN([C@@H]3CCN(C(=O)c4cc(C(F)(F)F)cc(C(F)(F)F)c4)[C@H](Cc4ccc(F)c(F)c4)C3)CC2)C1` (single isomer, unassigned) [Compound 365] are 2510 nM, 7.94 nM and 501 nM.
Turning to `O=C(c1ccoc1)N1CCC(N2CCN(C3CCN(C(=O)c4cc(C(F)(F)F)cc(C(F)(F)F)c4)C(Cc4ccc(F)c(F)c4)C3)CC2)C1` (stereo not drawn) [Compound 226], the values for the IC50 in experiment [1], in experiment [2] and in experiment [3] were 1260 nM, 6.31 nM and 501 nM, respectively.
For `O=C(c1ccccc1Cl)N1CCC(N2CCN(C3CCN(C(=O)c4cc(C(F)(F)F)cc(C(F)(F)F)c4)C(Cc4ccc(F)c(F)c4)C3)CC2)C1` (stereo not drawn) [Compound 255] the same measures were 1260 nM, 15.8 nM and 398 nM.
`CC(C(=O)N1CCC(N2CCN([C@H]3CCN(C(=O)c4cc(C(F)(F)F)cc(C(F)(F)F)c4)[C@H](Cc4ccccc4)C3)CC2)C1)c1ccccc1` (stereo partly drawn) [Compound 69]: the IC50 in experiment [1] was 631 nM; in experiment [2], 12.6 nM; in experiment [3], 501 nM.
For `COc1ccc(NC(=NC#N)N2CCC(N3CCN([C@H]4CCN(C(=O)c5cc(C(F)(F)F)cc(C(F)(F)F)c5)[C@H](Cc5ccccc5)C4)CC3)C2)cc1` (stereo partly drawn) [Compound 355], the IC50 in experiment [1] was 5010 nM; in experiment [2], 15.8 nM; in experiment [3], 6310 nM.
In the same order, the values of `O=C(c1cc(C(F)(F)F)cc(C(F)(F)F)c1)N1CC[C@H](N2CCN(C3CCN(S(=O)(=O)c4sccc4CO)C3)CC2)C[C@H]1Cc1ccccc1` (stereo partly drawn) [Compound 308] are 200 nM, 7.94 nM and 251 nM.
For `O=C(c1c[nH]c2ccccc12)N1CCC(N2CCN([C@H]3CCN(C(=O)c4cc(C(F)(F)F)cc(C(F)(F)F)c4)[C@H](Cc4ccccc4)C3)CC2)C1` (stereo partly drawn) [Compound 56], the IC50 in experiment [1] is 3160 nM; in experiment [2], 39.8 nM; in experiment [3], 126 nM.
In the same order, the values of `O=C(C1CC1)N1CC[C@@H](N2CCN([C@H]3CCN(C(=O)c4cc(C(F)(F)F)cc(C(F)(F)F)c4)[C@H](Cc4ccc(Cl)c(Cl)c4)C3)CC2)C1` [Compound 263] are 794 nM, 6.31 nM and 316 nM.
In the same order, the values of `O=C(C1CCOC1)N1CCC(N2CCN(C3CCN(C(=O)c4cc(C(F)(F)F)cc(C(F)(F)F)c4)C(Cc4ccc(Cl)c(Cl)c4)C3)CC2)C1` (single isomer, unassigned) [Compound 249] are 5010 nM, 50.1 nM and 5010 nM.
In the case of `O=C(c1cccs1)N1CC[C@H](N2CCN([C@H]3CCN(C(=O)c4cc(C(F)(F)F)cc(C(F)(F)F)c4)[C@H](Cc4ccccc4)C3)CC2)C1` [Compound 322], the IC50 in experiment [1] is 3980 nM; in experiment [2], 7.94 nM; in experiment [3], 631 nM.
For `Cn1cccc1C(=O)N1CCC(N2CCN(C3CCN(C(=O)c4cc(C(F)(F)F)cc(C(F)(F)F)c4)C(Cc4ccc(F)c(F)c4)C3)CC2)C1` (single isomer, unassigned) [Compound 366] the same measures were 2000 nM, 6.31 nM and 100 nM.
For `O=C(c1cc(C(F)(F)F)cc(C(F)(F)F)c1)N1CC[C@H](N2CCN(C3CCN(C(CO)c4cccs4)C3)CC2)C[C@H]1Cc1ccccc1` (stereo partly drawn) [Compound 319] the same measures were 5010 nM, 31.6 nM and 3160 nM.
For `Cc1noc(C)c1S(=O)(=O)N1CCC(N2CCN(C3CCN(C(=O)c4cc(C(F)(F)F)cc(C(F)(F)F)c4)C(Cc4ccccc4)C3)CC2)C1` (stereo not drawn) [Compound 79] the same measures were 1000 nM, 15.8 nM and 501 nM.
Turning to `O=C(c1ccoc1)N1CCC(N2CCN(C3CCN(C(=O)c4cc(C(F)(F)F)cc(C(F)(F)F)c4)C(Cc4ccc(Cl)c(Cl)c4)C3)CC2)C1` (stereo not drawn) [Compound 173], the IC50 was 794 nM in experiment [1], 20 nM in experiment [2] and 251 nM in experiment [3].
In the same order, the values of `COc1ccc(S(=O)(=O)N2CCC(N3CCN([C@H]4CCN(C(=O)c5cc(C(F)(F)F)cc(C(F)(F)F)c5)[C@H](Cc5ccccc5)C4)CC3)C2)cc1OC` (stereo partly drawn) [Compound 378] are 1580 nM, 12.6 nM and 2000 nM.
For `O=C(C(=O)N1CCC(N2CCN(C3CCN(C(=O)c4cc(C(F)(F)F)cc(C(F)(F)F)c4)C(Cc4ccccc4)C3)CC2)C1)c1ccco1` (stereo not drawn) [Compound 64] the same measures were 2510 nM, 50.1 nM and 158 nM.
In the same order, the values of `O=C(c1cnccn1)N1CCC(N2CCN([C@H]3CCN(C(=O)c4cc(C(F)(F)F)cc(C(F)(F)F)c4)[C@H](Cc4ccccc4)C3)CC2)C1` (stereo partly drawn) [Compound 30] are 3980 nM, 31.6 nM and 1000 nM.
For the compound `O=C(C1CCCCC1)N1CCC(N2CCN(C3CCN(C(=O)c4cc(C(F)(F)F)cc(C(F)(F)F)c4)C(Cc4ccc(F)c(F)c4)C3)CC2)C1` (single isomer, unassigned) [Compound 357], the values for the IC50 in experiment [1], in experiment [2] and in experiment [3] were 3160 nM, 10 nM and 794 nM, respectively.
For `O=C(C(NCc1ccccc1)c1ccccc1)N1CCC(N2CCN([C@H]3CCN(C(=O)c4cc(C(F)(F)F)cc(C(F)(F)F)c4)[C@H](Cc4ccccc4)C3)CC2)C1` (stereo partly drawn) [Compound 107] the same measures were 3160 nM, 100 nM and 631 nM.
For `O=C(c1cc(C(F)(F)F)cc(C(F)(F)F)c1)N1CCC(N2CCN(C3CCN(Cc4ccccc4)C3)CC2)CC1Cc1cc(Cl)cc(Cl)c1` (stereo not drawn) [Compound 320] the same measures were 3980 nM, 251 nM and 2510 nM.
For `O=C(c1ccoc1)N1CC[C@H](N2CCN([C@@H]3CCN(C(=O)c4cc(C(F)(F)F)cc(C(F)(F)F)c4)[C@@H](Cc4ccc(Cl)c(Cl)c4)C3)CC2)C1` [Compound 250] the same measures were 6310 nM, 100 nM and 5010 nM.
Regarding `N#Cc1ccc(C(=O)N2CCC(N3CCN([C@H]4CCN(C(=O)c5cc(C(F)(F)F)cc(C(F)(F)F)c5)[C@H](Cc5ccccc5)C4)CC3)C2)cc1` (stereo partly drawn) [Compound 271], the results for the IC50 in experiment [1], in experiment [2] and in experiment [3] were 5010 nM, 6.31 nM and 2000 nM, respectively.
As to `O=C(c1cc(C(F)(F)F)cc(C(F)(F)F)c1)N1CC[C@H](N2CCN(C3CCN(S(=O)(=O)c4ccc(CCO)s4)C3)CC2)C[C@H]1Cc1ccccc1` (stereo partly drawn) [Compound 351], the IC50 in experiment [1] is 251 nM; in experiment [2], 10 nM; in experiment [3] it was 1000 nM.

For the origin of these results see US7795261B2, “Substituted 1-piperidin-4-yl-4-pyrrolidin-3-yl-piperazine derivatives and their use as neurokinin antagonists” (Janssen Pharmaceutica NV, priority 2002, dated 2010).
